Measurements: patent US8883798B2, “Pyrimidine compounds inhibiting the formation of nitric oxide and prostaglandin E2, method of production thereof and use thereof” (Ustav Organicke Chemie a Biochemie Akademie Ved CR, V.V.I., priority 2011, dated 2014)

Columns and labels:
[1] = rat, in vivo, po, 800 mg/kg
Experimental: (§1) 28. The plasma samples were taken in intervals during 48 hours. […] Plasma samples were prepared by centrifugation (3500 rpm, 10 min, 4° C.), transferred into appropriately labelled and sealed Eppendorf tubes and frozen at −20° C. until transportation to analyses. The plasma was split into two aliquots. All samples were transported in a sufficient amount of dry ice to the analytical laboratory.
(§2) The analysis was performed using HPLC/MS/MS method with the use of internal deuterated standard and precipitation separation method. The analytical method used 50 μl of plasma sample for each analysis. The method was validated for concentration as low as 10.0 ng of the compound in 1 ml of plasma. A weighted liner regression was evaluated over the concentration range from 10.0-10 000.0 ng of the compound in 1 ml of plasma. Spiked plasma samples were precipitated with the solution of internal standard. The sample supernatant was analyzed on HPL/MS/MS system TSQ-03.

[2] = tested on: production of nitric oxide (NO); test: Production of nitric oxide (NO) in cultures of mouse peritoneal cells stimulated with IFN-γ plus LPS (Griess reagent); format: cell-based, mice; details: Table 3A; substance 50 μmol·l^−1; IFN-g plus LPS; 24 h
How it was run: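 C57BL/6 mouse peritoneal cells (2×10^6/mL) stimulated with IFN-γ (5000 pg/mL) plus LPS (100 pg/mL), compounds at 50 μmol·l^−1. Nitrite measured by Griess reagent after 24 h, expressed as % of stimulated control (set 100%); IC50 is concentration reducing NO by 50%.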

chronic colitis in mice = test: Chronic murine colitis induced by dextran sulfate sodium; format: in vivo, mice (Balb/c); details: 10 mg/kg orally, daily for 15 days
Experimental: Chronic colitis was induced in mice (Balb/c) by dextran sulfate sodium (DSS), used as a 3% solution in drinking water. DSS treatment was applied intermittently on the three 5-day intervals, separated by the 9-day intervals (i.e. between the DSS cycles 1/2 and 2/3) during which the mice drunk normal water.
The test compounds were given orally, suspended in 0.5% methylcellulose. The dose was 10 mg/kg. The daily dosing started immediately after the second DSS interval and lasted to the end of the 3rd DSS interval, i.e. for the duration of 15 days. At this point, the animals were sacrificed and clinical signs of colitis were examined. Except of continuous monitoring the body weight, the following parameters were evaluated: a) colon length, b) disease activity index, and c) histological grade. Three compounds were included in this experiment: nos. 19, 51, and 28. 5-Aminosalycilic acid was used as a positive reference drug. The effects were compared to the group of mice receiving placebo (0.5% methylcellulose).

[3] = Pilot toxic-kinetic study, single per-oral administration; details: female Wistar rats; single per-oral dose 800 mg/kg; plasma
Experimental: as §1, §2

[4] = tested on: human peripheral blood lymphocytes; test: Chromosomal aberration test in vitro; format: cell-based; details: 0.1, 0.2 and 0.5 mg/ml; with and without metabolic activation
Experimental: The clastogenicity potential of compound no. 28 was determined using chromosomal aberration test in vitro. The test was carried out in human peripheral blood lymphocytes both with and without metabolic activation system in two separate assays.
Three concentrations were selected for the test: 0.1, 0.2 and 0.5 mg/ml of final culture. Cells were arrested at metaphase by colchicine, harvested and slides were stained. Metaphase cells were analyzed microscopically for the presence of chromosomal aberrations. A total of 200 well-spread metaphases were examined per concentration on coded slides. Concurrent positive (thiotepa, cyclophosphamide) and negative (2% DMSO) controls were included in each experiment. […].

HUVEC = HUVEC cell proliferation (XTT assay); format: cell-based, human; details: 10 to 50 μmol/L, 8 hours
[5] = tested on: human umbilical vein endothelial cells (HUVEC); test: Tube formation assay of HUVEC on Matrigel (in vitro angiogenesis); format: cell-based; details: 8 h
Source text: This so called “Tube Formation Assay” is a method based on the ability of endothelial cells to form capillary-like tubular structures when cultured on Matrigel™ (a gel of basement membrane extract—their natural substrate). The process of capillary-like tube formation includes endothelial cell attachment, migration, and differentiation into tubules. In this experiment, treatment with tested compounds started at the time of seeding HUVEC onto Matrigel and the extent of tubule development was observed after an 8 h time period. Disruption of tube formation was then assessed through observation of the tubular network and direct comparison to solvent-only controls. The quantitative and qualitative measurement of tubular network complexity was performed using web-based S.CORE imaging software and expressed by means of number of tubes, their total length, quality, number of branching points, etc. All these parameters were integrated into “tube formation index” which corresponds to the degree of complexity of tubular network. […] At a 10 μmol/L concentration, compound 23 reduced tube formation by >90%. […] Apoptosis in HUVECs (at ˜70% confluency) treated with or without varying concentrations (relevant for the tube formation assay) of tested substances was assessed by a combination of Annexin V and JC-1 staining. After 8 h of these treatments, cells were collected, and the cell population undergoing apoptosis was identified by double-parameter flow cytometry using annexin V and the vital dye propidium iodide (PI). Mitochondrial membrane potential in treated endothelial cells was measured using the lypophilic probe JC-1, which aggregates in healthy mitochondria and fluoresces red, but diffuses in the cytoplasm and fluoresces green upon mitochondrial damage. In both cases, quantification of apoptotic cells were conducted in BD FACSDiva software.

[6] = tested on: adjuvant arthritis in sewer rats; test: Adjuvant arthritis in female Lewis sewer rats (Freund's complete adjuvant); format: in vivo, sewer rats of the inbred strain Lewis; details: 50 mg/kg orally, Day 9 to Day 16; versus methylcellulose group

Structure (SMILES): CCCCc1c(Cl)nc(N)nc1Cl [Substance 28]
- Toxic effect in animals [1]: No apparent toxic effect was observed
- Production of nitric oxide in % of the controls [2]: 53.23 ± 5.79 % of the controls
- Clinical signs of chronic experimental colitis (chronic colitis in mice): significantly lowers the clinical signs of chronic experimental colitis
- Colon length (inflammation in the gut) (chronic colitis in mice): protection against the shortening of colon
- Effectiveness compared with 5-aminosalycilic acid (chronic colitis in mice): slightly more effective than the reference drug
- Overall disease activity index (chronic colitis in mice): lower than in the placebo group
- Cmax = maximum concentration [3]: 337.2 ng/mL
- Terminal elimination rate half-life [3]: 15.9 h
- Numerical and structural chromosome aberrations (clastogenicity) [4]: did not induce an increase in numerical and structural chromosome aberrations

Structure (SMILES): CCCCc1c(Cl)nc(NC=O)nc1Cl [Substance 51]
- HUVEC cell proliferation (HUVEC): did not influence HUVEC cell proliferation
- Effect on tube formation ([5]; 10 μmol/L): only limited effect
- Incomplete tube formation ([5]; 25 μmol/L): ~6%
- Capillary tube formation [5]: inhibited capillary tube formation in a dose dependent manner
- Severity of adjuvant arthritis (size of contralateral paws) [6]: distinctive (statistically significant) reduction of the severity of the illness
- Production of nitric oxide in % of the controls [2]: 8.37 ± 2.77 % of the controls
